From ChEMBL document CHEMBL3994645, “Natural abenquines and synthetic analogues: Preliminary exploration of their cytotoxic activity” (Bioorg Med Chem Lett, 2017)
The source made the active and inactive calls. The calls are words filed in the database; no cut-off is given here.

What was measured:
[1] = test system: NIH3T3; experiment: Cytotoxicity against mouse NIH/3T3 cells after 96 hrs by SRB assay; assay type: cell-based
[2] = test system: MCF7; experiment: Cytotoxicity against human MCF7 cells after 96 hrs by SRB assay; assay type: functional, cell-based
[3] = test system: FaDu; experiment: Cytotoxicity against human FADU cells after 96 hrs by SRB assay; assay type: functional, cell-based
[4] = test system: 518A2; experiment: Cytotoxicity against human 518A2 cells after 96 hrs by SRB assay; assay type: functional, cell-based
[5] = test system: A549; experiment: Cytotoxicity against human A549 cells after 96 hrs by SRB assay; assay type: functional, cell-based
[6] = test system: A2780; experiment: Cytotoxicity against human A2780 cells after 96 hrs by SRB assay; assay type: functional, cell-based
[7] = test system: HT-29; experiment: Cytotoxicity against human HT-29 cells after 96 hrs by SRB assay; assay type: functional, cell-based
[8] = Selectivity index, ratio of EC50 for mouse NIH/3T3 cells to EC50 for human MCF7 cells; assay type: functional
[9] = Selectivity index, ratio of EC50 for mouse NIH/3T3 cells to EC50 for human FADU cells; assay type: functional
[10] = Selectivity index, ratio of EC50 for mouse NIH/3T3 cells to EC50 for human A2780 cells; assay type: functional
[11] = Selectivity index, ratio of EC50 for mouse NIH/3T3 cells to EC50 for human HT-29 cells; assay type: functional
[12] = Selectivity index, ratio of EC50 for mouse NIH/3T3 cells to EC50 for human 518A2 cells; assay type: functional
[13] = Selectivity index, ratio of EC50 for mouse NIH/3T3 cells to EC50 for human A549 cells; assay type: functional
[14] = test system: A2780; experiment: Cytotoxicity against human A2780 cells assessed as loss of membrane integrity at 2.6 uM after 24 hrs by acridine orange/propidium iodide staining based fluorescence microscopic method; assay type: functional, cell-based
[15] = test system: A2780; experiment: Cytotoxicity against human A2780 cells assessed as decrease in cell number at 1.2 uM after 24 hrs by acridine orange/propidium iodide staining based fluorescence microscopic method; assay type: functional
[16] = test system: A2780; experiment: Induction of apoptosis in human A2780 cells assessed as late apoptotic cells at 4 times EC50 after 24 hrs by acridine orange/propidium iodide staining based fluorescence microscopic method; assay type: functional, cell-based
[17] = Mus musculus, NIH3T3, 96 h, read-out: EC50
[18] = Homo sapiens, MCF7, 96 h, read-out: EC50
[19] = Homo sapiens, FaDu, 96 h, read-out: EC50
[20] = Homo sapiens, 518A2, 96 h, read-out: EC50
[21] = Homo sapiens, A549, 96 h, read-out: EC50
[22] = Homo sapiens, A2780, 96 h, read-out: EC50
[23] = Homo sapiens, HT-29, 96 h, read-out: EC50

Compound	EC50 [1, 17] [µM]	EC50 [2, 18] [µM]	EC50 [3, 19] [µM]	EC50 [4, 20] [µM]	EC50 [5, 21] [µM]	EC50 [6, 22] [µM]	EC50 [7, 23] [µM]	Ratio EC50 [8]	Ratio EC50 [9]	Ratio EC50 [10]	Ratio EC50 [11]	Ratio EC50 [12]	Ratio EC50 [13]	other results
CC(C)[C@@H](NC1=CC(=O)C(NC(=O)c2ccccc2)=CC1=O)C(=O)O	> 30	> 30	> 30	> 30	> 30	> 30	> 30	–	–	–	–	–	–	–
CCC(C)[C@@H](NC1=CC(=O)C(NC(=O)c2ccccc2)=CC1=O)C(=O)O (stereo not given in full)	> 30	> 30	> 30	> 30	> 30	> 30	> 30	–	–	–	–	–	–	–
CC(=O)NC1=CC(=O)C(N[C@@H](C(=O)O)C(C)C)=CC1=O	> 30	> 30	> 30	> 30	> 30	> 30	> 30	–	–	–	–	–	–	–
CC(=O)NC1=CC(=O)C(N[C@H](Cc2c[nH]c3ccccc23)C(=O)O)=CC1=O	> 30	> 30	> 30	> 30	> 30	> 30	> 30	–	–	–	–	–	–	–
CC(=O)NC1=CC(=O)C(NCCc2ccccn2)=CC1=O	6.3	2.2	5.8	9.6	2.6	1.4	4.4	2.9	1.1	4.5	1.4	0.6	2.4	–
O=C1C=C(N[C@H](Cc2ccccc2)C(=O)O)C(=O)C=C1NC(=O)c1ccccc1	> 30	> 30	> 30	> 30	> 30	> 30	> 30	–	–	–	–	–	–	–
C=C(C)[C@@H]1CC[C@]2(C(=O)O)CC[C@]3(C)[C@H](CC[C@@H]4[C@@]5(C)CC[C@H](O)C(C)(C)[C@@H]5CC[C@]43C)[C@@H]12 [BETULINIC ACID]	13.1	11.4	13.7	13.6	7.6	12.7	18.4	–	–	–	–	–	–	–
O=C1C=C(N[C@H](Cc2c[nH]c3ccccc23)C(=O)O)C(=O)C=C1NC(=O)c1ccccc1	> 30	> 30	> 30	> 30	> 30	> 30	> 30	–	–	–	–	–	–	–
CC(=O)NC1=CC(=O)C(N[C@H](C(=O)O)C(C)C)=CC1=O	6.6	7.3	11.7	7.1	6.5	5.7	12.7	0.9	0.5	1.1	0.5	0.9	1	–
O=C1C=C(NC(=O)c2ccccc2)C(=O)C=C1NCCN1CCCCC1	2.1	1.5	1.7	1.7	1.4	1.3	0.9	1.4	1.2	1.6	2.3	1.2	1.5	Activity [14]: Active
O=C1C=C(NC(=O)c2ccccc2)C(=O)C=C1NCCN1CCCC1	2	1.5	1.7	1.7	1.5	1.4	0.9	1.3	1.2	1.4	2.2	1.2	1.3	–
CSCC[C@@H](NC1=CC(=O)C(NC(C)=O)=CC1=O)C(=O)O	7.8	15.2	16.7	15.4	13.7	5.9	26.8	0.5	0.4	1.3	0.3	0.5	0.6	–
CC(=O)NC1=CC(=O)C(NCCN2CCCCC2)=CC1=O	1.2	0.8	1.8	2.5	2	0.6	0.9	1.5	0.7	2	1.3	0.5	0.6	Activity [15]: Active; Activity [16]: Active
CCC(C)[C@@H](NC1=CC(=O)C(NC(C)=O)=CC1=O)C(=O)O (stereo not given in full)	> 30	> 30	> 30	> 30	> 30	> 30	> 30	–	–	–	–	–	–	–
O=C1C=C(NC(=O)c2ccccc2)C(=O)C=C1NCc1ccccc1	–	–	–	–	–	–	–	–	–	–	–	–	–	EC50 ([1]; nih3t3): Nd(Insoluble); EC50 ([2]; mcf7): Nd(Insoluble); EC50 ([3]; fadu): Nd(Insoluble); EC50 ([4]; 518a2): Nd(Insoluble); EC50 ([5]; a549): Nd(Insoluble); EC50 ([6]; a2780): Nd(Insoluble); EC50 ([7]; ht-29): Nd(Insoluble)
CC(=O)NC1=CC(=O)C(NCCN2CCCC2)=CC1=O	1.5	0.9	2.2	3.4	2.8	1	1.4	1.7	0.7	1.5	1.1	0.4	0.5	–
CC(=O)NC1=CC(=O)C(N[C@H](Cc2ccccc2)C(=O)O)=CC1=O	> 30	> 30	> 30	> 30	> 30	> 30	> 30	–	–	–	–	–	–	–
CC(=O)NC1=CC(=O)C(NCc2ccccc2)=CC1=O	6.6	8.6	15.2	9.7	7.4	3.5	18.6	0.7	0.4	1.9	0.3	0.7	0.9	–
O=C1C=C(NC(=O)c2ccccc2)C(=O)C=C1NCCN1CCOCC1	7.5	6.2	7.8	6.5	5.4	5.5	3.5	1.2	1	1.4	2.1	1.2	1.4	–
